In series [1] the test system is bacterial isolates (clinical isolates and ATCC quality control strains). The series is described as follows: Minimum Inhibitory Concentrations (MICs) by broth microdilution (CLSI susceptibility testing). It counts as cell-based. An outline of the steps: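 Broth microdilution per CLSI in cation-adjusted Mueller-Hinton broth, 2-fold serial drug dilutions, final inoculum 3×10^5–7×10^5 CFU/mL. Plates incubated 18-24 h at 35 °C in ambient air; MIC is lowest concentration preventing visible growth (OD600 nm<0.05), with levofloxacin and QC strains monitoring performance.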
In general terms: In broth dilution the organism is exposed to a series of concentrations in liquid medium.

The subject of series [2] is 3 P. aeruginosa strains (APAE001, APAE002, APAE006). The series is described as follows: Protein binding: fold change in MIC in the presence of 2% HSA and 0.05% AGP, Geomean of 3 strains. It counts as cell-based, Pseudomonas aeruginosa. As to conditions: MIC in the presence of 2% HSA and 0.05% AGP divided by MIC in the absence; Geomean of 3 P. aeruginosa strains (APAE001, APAE002, APAE006). The gist of the method:
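MIC against each strain was determined by the standard broth method in cation-adjusted Mueller-Hinton broth with and without 2% HSA plus 0.05% AGP. Fold change is the MIC ratio with/without protein per strain; the value reported is the geometric mean over APAE001, APAE002 and APAE006.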

The mark [3] stands for this setting: Pseudomonas aeruginosa, ATCC27853, read-out: Minimum Inhibitory Concentrations (MICs) APAE001.
Setting [4] is: Pseudomonas aeruginosa, read-out: Minimum Inhibitory Concentrations (MICs) APAE002.
The mark [5] stands for this setting: read-out: Minimum Inhibitory Concentrations (MICs) APAE1096.
The mark [6] stands for this setting: APAE1096 is a clinical isolate, broth microdilution, read-out: Minimum Inhibitory Concentrations (MICs) APAE1096.
Where [7] appears, read: Pseudomonas aeruginosa, APAE002 is a wildtype lab strain of Pseudomonas aeruginosa known as PAM1020 or PA01, broth microdilution, read-out: Minimum Inhibitory Concentrations (MICs) APAE002.
Setting [8] is: Pseudomonas aeruginosa, ATCC27853, APAE001 is Pseudomonas aeruginosa ATCC27853, broth microdilution, read-out: Minimum Inhibitory Concentrations (MICs) APAE001.

Experimental findings from patent US20150175530A1, “ANTIBACTERIAL AGENTS” (priority 2012, published 2015) are described below.

SMILES strings stand for the structures. ≈ marks a conversion by molar mass, not a printed value. Like-named read-outs stand apart in the source and are kept apart here.

With `C[C@@H](N)[C@H](NC(=O)c1ccc(C#CC#CC(O)CO)cc1)C(=O)NO` (stereo partly drawn) [Compound 45, N-((2S,3R)-3-amino-1-(hydroxyamino)-1-oxobutan-2-yl)-4-(5,6-dihydroxyhexa-1,3-diyn-1-yl)benzamide], the MIC in series [1] (setting [3]) is 1 to 8 µg/mL (≈ 2.9 to 23.2 µM); in series [1] (setting [4]), less than 1 µg/mL; in series [1] (setting [5]), 1 to 8 µg/mL (≈ 2.9 to 23.2 µM). For the same compound, the “Protein Binding PB (Geomean of fold change in MIC)” value in series [2] turned out to be 2.0.
As to `COC(C#CC#Cc1ccc(C(=O)N[C@H](C(=O)NO)C(C)(C)N)cc1)CO` (stereo partly drawn) [Compound 47, N—((S)-3-amino-1-(hydroxyamino)-3-methyl-1-oxobutan-2-yl)-4-(6-hydroxy-5-methoxyhexa-1,3-diyn-1-yl)benzamide], the MIC in series [1] (setting [3]) is less than 1 µg/mL; in series [1] (setting [4]), less than 1 µg/mL; in series [1] (setting [5]), 1 to 8 µg/mL (≈ 2.68 to 21.4 µM). The “Protein Binding PB (Geomean of fold change in MIC)” value in series [2] stood at 2.6.
With `CN[C@H](C)[C@H](NC(=O)c1ccc(C#CC#CCCO)cc1)C(=O)NO` [Compound 48, N-((2S,3R)-1-(hydroxyamino)-3-(methylamino)-1-oxobutan-2-yl)-4-(6-hydroxyhexa-1,3-diyn-1-yl)benzamide], the MIC in series [1] (setting [6]) is 1 to 8 µg/mL (≈ 2.91 to 23.3 µM); in series [1] (setting [7]), less than 1 µg/mL; in series [1] (setting [8]) it was less than 1 µg/mL. The “Protein Binding PB (Geomean of fold change in MIC)” value in series [2] is reported as 2.0.
For `CN[C@H](C)[C@H](NC(=O)c1ccc(C#CC#C[C@H](C)O)cc1)C(=O)NO` [Compound 49, N-((2S,3R)-1-(hydroxyamino)-3-(methylamino)-1-oxobutan-2-yl)-4-((S)-5-hydroxyhexa-1,3-diyn-1-yl)benzamide], the MIC was 1 to 8 µg/mL (≈ 2.91 to 23.3 µM) in series [1] (setting [6]), less than 1 µg/mL in series [1] (setting [7]) and less than 1 µg/mL in series [1] (setting [8]). For the same compound, in series [2], the “Protein Binding PB (Geomean of fold change in MIC)” value came to 2.0.
With `CC(O)(C#CC#Cc1ccc(C(=O)N[C@H](C(=O)NO)C(C)(C)N)cc1)CO` (stereo partly drawn) [Compound 50, N—((S)-3-amino-1-(hydroxyamino)-3-methyl-1-oxobutan-2-yl)-4-(5,6-dihydroxy-5-methylhexa-1,3-diyn-1-yl)benzamide], the MIC in series [1] (setting [6]) is 8 to 16 µg/mL (≈ 21.4 to 42.8 µM); in series [1] (setting [7]), 1 to 8 µg/mL (≈ 2.68 to 21.4 µM); in series [1] (setting [8]), less than 1 µg/mL. In addition, the “Protein Binding PB (Geomean of fold change in MIC)” value in series [2] is reported as 1.6.
Consider `CNC(C)(C)[C@H](NC(=O)c1ccc(C#CC#CC(O)CO)cc1)C(=O)NO` (stereo partly drawn) [Compound 51, 4-(5,6-dihydroxyhexa-1,3-diyn-1-yl)-N—((S)-1-(hydroxyamino)-3-methyl-3-(methylamino)-1-oxobutan-2-yl)benzamide], for which the results for the MIC in series [1] (setting [6]), in series [1] (setting [7]) and in series [1] (setting [8]) were 1 to 8 µg/mL (≈ 2.68 to 21.4 µM), less than 1 µg/mL and less than 1 µg/mL, respectively. The “Protein Binding PB (Geomean of fold change in MIC)” value in series [2] was found to be 1.6.
Take `CC(C)(N)[C@H](NC(=O)c1ccc(C#C/C=C/CC(O)CO)cc1)C(=O)NO` (stereo partly drawn) [Compound 52, N—((S)-3-amino-1-(hydroxyamino)-3-methyl-1-oxobutan-2-yl)-4-((E)-6,7-dihydroxyhept-3-en-1-yn-1-yl)benzamide]: the values for the MIC in series [1] (setting [6]), in series [1] (setting [7]) and in series [1] (setting [8]) were 8 to 16 µg/mL (≈ 21.3 to 42.6 µM), 1 to 8 µg/mL (≈ 2.66 to 21.3 µM) and 1 to 8 µg/mL (≈ 2.66 to 21.3 µM), respectively. For the same compound, in series [2], the “Protein Binding PB (Geomean of fold change in MIC)” value was 1.0.
On to `C[C@@H](CO)[C@H](O)C#CC#Cc1ccc(C(=O)N[C@H](C(=O)NO)C(C)(C)N)cc1` [Compound 53, N—((S)-3-amino-1-(hydroxyamino)-3-methyl-1-oxobutan-2-yl)-4-((5S,6S)-5,7-dihydroxy-6-methylhepta-1,3-diyn-1-yl)benzamide], for which the results for the MIC in series [1] (setting [6]), in series [1] (setting [7]) and in series [1] (setting [8]) were 8 to 16 µg/mL (≈ 20.6 to 41.3 µM), 1 to 8 µg/mL (≈ 2.58 to 20.6 µM) and 1 to 8 µg/mL (≈ 2.58 to 20.6 µM), respectively. For the same compound, the “Protein Binding PB (Geomean of fold change in MIC)” value in series [2] is given as 2.0.
For `CC(C)(N)[C@H](NC(=O)c1ccc(C#CC#C[C@@H](O)CCO)cc1)C(=O)NO` [Compound 54, N—((S)-3-amino-1-(hydroxyamino)-3-methyl-1-oxobutan-2-yl)-4-((S)-5,7-dihydroxyhepta-1,3-diyn-1-yl)benzamide], the MIC is 8 to 16 µg/mL (≈ 21.4 to 42.8 µM) in series [1] (setting [6]), less than 1 µg/mL in series [1] (setting [7]) and less than 1 µg/mL in series [1] (setting [8]). Further, in series [2], the “Protein Binding PB (Geomean of fold change in MIC)” value stood at 2.0.
As for `CC(C)(N)[C@H](NC(=O)c1ccc(C#C/C=C/CCO)cc1)C(=O)NO` [Compound 55, (S,E)-N-(3-amino-1-(hydroxyamino)-3-methyl-1-oxobutan-2-yl)-4-(6-hydroxyhex-3-en-1-yn-1-yl)benzamide], the MIC was 1 to 8 µg/mL (≈ 2.9 to 23.2 µM) in series [1] (setting [6]), less than 1 µg/mL in series [1] (setting [7]) and less than 1 µg/mL in series [1] (setting [8]). Also, in series [2], the “Protein Binding PB (Geomean of fold change in MIC)” value was determined as 2.0.
For the compound `CN[C@H](C)[C@H](NC(=O)c1ccc(C#CC#CCO)cc1)C(=O)NO` [Compound 56, N-((2S,3R)-1-(hydroxyamino)-3-(methylamino)-1-oxobutan-2-yl)-4-(5-hydroxypenta-1,3-diyn-1-yl)benzamide], the MIC in series [1] (setting [6]) was 1 to 8 µg/mL (≈ 3.04 to 24.3 µM); in series [1] (setting [7]), less than 1 µg/mL; in series [1] (setting [8]), less than 1 µg/mL. Besides, the “Protein Binding PB (Geomean of fold change in MIC)” value in series [2] is recorded as 2.5.
Turning to `CC(C)(N)[C@H](NC(=O)c1ccc(C#CC#CC2(O)CCC(CO)C2)cc1)C(=O)NO` (stereo partly drawn) [Compound 57, N—((S)-3-amino-1-(hydroxyamino)-3-methyl-1-oxobutan-2-yl)-4-((1-hydroxy-3-(hydroxymethyl)cyclopentyl)buta-1,3-diyn-1-yl)benzamide], the MIC in series [1] (setting [6]) was 1 to 8 µg/mL (≈ 2.42 to 19.3 µM); in series [1] (setting [7]), less than 1 µg/mL; in series [1] (setting [8]) it was less than 1 µg/mL. In addition, in series [2], the “Protein Binding PB (Geomean of fold change in MIC)” value was determined as 1.6.
Regarding `CC(C)(N)[C@H](NC(=O)c1ccc(C#C/C=C/C(O)CO)cc1)C(=O)NO` (stereo partly drawn) [Compound 58, N—((S)-3-amino-1-(hydroxyamino)-3-methyl-1-oxobutan-2-yl)-4-((E)-5,6-dihydroxyhex-3-en-1-yn-1-yl)benzamide], the MIC in series [1] (setting [6]) lay within 8 to 16 µg/mL (≈ 22.1 to 44.3 µM); in series [1] (setting [7]) it was 1 to 8 µg/mL (≈ 2.77 to 22.1 µM); in series [1] (setting [8]), 1 to 8 µg/mL (≈ 2.77 to 22.1 µM). The “Protein Binding PB (Geomean of fold change in MIC)” value in series [2] was 1.0.
Turning to `C[C@H](O)C#CC#Cc1ccc(C(=O)N[C@H](C(=O)NO)[C@@H](N)C(F)(F)F)cc1` [Compound 59, N-((2S,3R)-3-amino-4,4,4-trifluoro-1-(hydroxyamino)-1-oxobutan-2-yl)-4-((S)-5-hydroxyhexa-1,3-diyn-1-yl)benzamide], the MIC is 1 to 8 µg/mL (≈ 2.61 to 20.9 µM) in series [1] (setting [6]), less than 1 µg/mL in series [1] (setting [7]) and 1 to 8 µg/mL (≈ 2.61 to 20.9 µM) in series [1] (setting [8]). Also, the “Protein Binding PB (Geomean of fold change in MIC)” value in series [2] was 3.2.
Turning to `CC(C)(N)[C@H](NC(=O)c1ccc(C#CC#C[C@H](O)CO)cc1)C(=O)NO` [Compound 61, N—((S)-3-amino-1-(hydroxyamino)-3-methyl-1-oxobutan-2-yl)-4-((S)-5,6-dihydroxyhexa-1,3-diyn-1-yl)benzamide], the MIC in series [1] (setting [6]) was 1 to 8 µg/mL (≈ 2.78 to 22.3 µM); in series [1] (setting [7]) it was less than 1 µg/mL; in series [1] (setting [8]), less than 1 µg/mL. Also, the “Protein Binding PB (Geomean of fold change in MIC)” value in series [2] amounted to 1.6.
Turning to `CC(C)(N)[C@H](NC(=O)c1ccc(C#CC#C[C@@H](O)CO)cc1)C(=O)NO` [Compound 62, N—((S)-3-amino-1-(hydroxyamino)-3-methyl-1-oxobutan-2-yl)-4-((R)-5,6-dihydroxyhexa-1,3-diyn-1-yl)benzamide], the MIC in series [1] (setting [6]) is 1 to 8 µg/mL (≈ 2.78 to 22.3 µM); in series [1] (setting [7]), less than 1 µg/mL; in series [1] (setting [8]) it was less than 1 µg/mL. Further, the “Protein Binding PB (Geomean of fold change in MIC)” value in series [2] was found to be 2.0.
